This note sets out measurements from ChEMBL document CHEMBL4622891, “Design, synthesis, and pharmacological evaluation of 2-(4-sulfonylphenyl)-2-[(E)-pyrrolidin-1-ylimino]-N-thiazoleacetamides as glucokinase activators” (Bioorg Med Chem Lett, 2020).

For this assay, the target named is Voltage-gated inwardly rectifying potassium channel KCNH2 (Homo sapiens, UniProt Q12809). Description: Inhibition of human ERG.

The structures appear in SMILES notation.

Chain of Voltage-gated inwardly rectifying potassium channel KCNH2 (Q12809 whole entry): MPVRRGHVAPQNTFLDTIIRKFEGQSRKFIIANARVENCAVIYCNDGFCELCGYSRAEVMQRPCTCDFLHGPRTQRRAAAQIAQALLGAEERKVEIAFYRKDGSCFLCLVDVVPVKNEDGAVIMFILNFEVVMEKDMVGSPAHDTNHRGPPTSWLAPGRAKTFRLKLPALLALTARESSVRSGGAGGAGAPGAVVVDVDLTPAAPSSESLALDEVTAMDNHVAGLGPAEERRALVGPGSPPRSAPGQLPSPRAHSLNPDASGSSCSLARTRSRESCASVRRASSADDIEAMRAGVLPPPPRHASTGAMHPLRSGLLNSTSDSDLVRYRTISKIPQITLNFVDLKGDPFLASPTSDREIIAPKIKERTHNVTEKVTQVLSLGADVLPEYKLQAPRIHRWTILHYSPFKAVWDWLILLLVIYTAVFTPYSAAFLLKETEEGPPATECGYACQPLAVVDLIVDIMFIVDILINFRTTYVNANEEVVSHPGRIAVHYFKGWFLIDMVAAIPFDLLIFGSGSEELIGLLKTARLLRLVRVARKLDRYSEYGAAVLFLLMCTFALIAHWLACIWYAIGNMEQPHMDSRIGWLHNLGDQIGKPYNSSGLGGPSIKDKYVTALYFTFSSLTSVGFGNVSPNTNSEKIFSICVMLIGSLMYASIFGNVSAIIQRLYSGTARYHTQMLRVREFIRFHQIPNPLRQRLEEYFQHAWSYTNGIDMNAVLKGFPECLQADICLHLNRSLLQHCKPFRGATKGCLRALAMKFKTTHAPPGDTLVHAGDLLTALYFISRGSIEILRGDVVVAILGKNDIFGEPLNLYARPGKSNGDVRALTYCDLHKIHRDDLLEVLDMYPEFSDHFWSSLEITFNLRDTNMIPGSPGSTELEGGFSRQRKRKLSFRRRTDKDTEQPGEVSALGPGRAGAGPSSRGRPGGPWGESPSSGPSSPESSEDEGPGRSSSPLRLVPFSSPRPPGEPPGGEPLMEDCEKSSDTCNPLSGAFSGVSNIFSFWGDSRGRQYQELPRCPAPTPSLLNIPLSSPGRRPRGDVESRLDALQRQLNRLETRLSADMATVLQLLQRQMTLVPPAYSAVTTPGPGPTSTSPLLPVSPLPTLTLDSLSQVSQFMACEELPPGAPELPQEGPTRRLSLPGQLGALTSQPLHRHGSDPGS

One may read the IC50 as the concentration at which inhibition is half-maximal. Compound `Cc1cnc(NC(=O)/C(=N/N2CCCC2)c2ccc(S(=O)(=O)C3CC3)cc2)s1` had a half-maximal inhibitory concentration (IC50) of over 100 µM.
As for `Cc1nnc(NC(=O)/C(=N/N2CCCC2)c2ccc(S(=O)(=O)C3CC3)cc2)s1`, the half-maximal inhibitory concentration (IC50) is over 100 µM.
For the compound `O=C(Nc1ncc(Cl)s1)/C(=N/N1CCCC1)c1ccc(S(=O)(=O)C2CC2)cc1`, the concentration for half-maximal inhibition (IC50) was found to be 16.7 µM.
As for `CC(=O)N1CCN(Cc2cnc(NC(=O)/C(=N/N3CCCC3)c3ccc(S(=O)(=O)C4CC4)cc3)s2)CC1`, the figure is over 100 µM; as for `O=C(Nc1nccs1)/C(=N/N1CCCC1)c1ccc(S(=O)(=O)C2CC2)cc1`, 17.5 µM.
